Measurements from patent publication US6551615B1, “Dexibuprofen-containing soft gelatin capsules and process for preparing the same” (M/s. Strides Arcolab Limited, priority 2001, dated 2003).

How the values were obtained:
[1] = Compatibility of dexibuprofen with glycerin plasticizer; format: physicochemical; details: in some instances
Excerpt: In general, gelatin capsule formulations for soft gelatin capsules comprise raw gelatin and one or more plasticizers added to adjust the hardness of the capsule. Typical plasticizers include glycerin, sorbitol and Anidrisorb 85/70. A preferred plasticizer is Anidrisorb 85/70, an aqueous solution of D-sorbitol and sorbitans. […] One preferred gelatin formulation for the soft gelatin capsules used in accordance with preferred embodiments includes gelatin in the range of about 40% to 48% and a plasticizer ranging in amount from about 20% to 35%. Another preferred plasticizer is sorbitol BP, a non-crystallizing sorbitol solution. When either a 70%, non-crystallizing sorbitol solution or Anidrisorb 85/70 are used alone, the amount of plasticizer used preferaby ranges from about 25% to 35%. Capsule formulations can also include other suitable additives, for example coloring agents, which impart specific characteristics such as the look and feel of the capsule. FD&C dyes and D & C dyes are examples of pharmaceutically acceptable coloring agents that may be used in preferred embodiments.

[2] = cited from earlier work

## CC(C)Cc1ccc([C@H](C)C(=O)O)cc1 [Dexibuprofen, (S)-(+)-2-(4-isobutylphenyl)propionic acid]
[1]
  Reaction with glycerin (plasticizer of the capsule shell): forming unwanted glycerol esters of dexibuprofen
[2]; acetone
  Solubility in acetone: freely soluble
[2]; aqueous solutions of alkali hydroxides and carbonates
  Solubility in aqueous solutions of alkali hydroxides and carbonates: soluble
[2]; methanol
  Solubility in methanol: freely soluble
[2]; methylene chloride
  Solubility in methylene chloride: freely soluble
[2]; most organic solvents
  Solubility in most organic solvents: readily soluble
[2]; water
  Solubility in water: practically insoluble
